From PMC3968781 (Journal of the American Chemical Society, 2014)

Experiments:
Format in all cases: biochemical
[1] = target: T1, Nitrile hydratase (PtNHase), alpha subunit (Pseudonocardia thermophila, UniProt Q7SID2+Q7SID3); experiment: X-ray co-crystal structure
T1 sequence (Q7SID2 2-204): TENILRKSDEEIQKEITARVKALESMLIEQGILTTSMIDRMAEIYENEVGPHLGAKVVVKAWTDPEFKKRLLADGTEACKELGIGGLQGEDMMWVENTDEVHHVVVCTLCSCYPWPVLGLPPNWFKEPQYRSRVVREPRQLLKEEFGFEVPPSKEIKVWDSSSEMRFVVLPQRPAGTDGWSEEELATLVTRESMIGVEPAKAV
T1 sequence (Q7SID3 1-233): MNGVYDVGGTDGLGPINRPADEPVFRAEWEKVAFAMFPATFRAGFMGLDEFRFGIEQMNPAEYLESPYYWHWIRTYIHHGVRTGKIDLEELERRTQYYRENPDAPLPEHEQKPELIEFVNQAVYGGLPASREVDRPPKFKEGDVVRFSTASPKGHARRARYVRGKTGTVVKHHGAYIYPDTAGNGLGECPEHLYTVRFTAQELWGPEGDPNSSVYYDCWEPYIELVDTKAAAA

[2] = target: T1, Nitrile hydratase (PtNHase), alpha subunit; experiment: X-ray crystal structures
[3] = target: T1, Nitrile hydratase (PtNHase), alpha subunit; experiment: spectrophotometric hydration kinetics at […] nm

OB(O)c1ccccc1 [PBA, phenylboronic acid]
Ki [1]: 0.04 ± 0.01 nM

CCCCB(O)O [BuBA, 1-butaneboronic acid]
Ki [2]: 500 ± 100 nM

C=CC#N [acrylonitrile]
Km [3]: 800 ± 100 µM
